Assay results from patent US20020172670A1 (priority 2000, published 2002).

Columns and labels:
dGMII [1] = target: T1, dGMII (Drosophila melanogaster, UniProt Q24451); details: cited from earlier work
T1 construct: The resulting constructs consist of the dGMII catalytic region with a short length of the stalk region; Bip secretion signal (N); made in house; host or cells: Drosophila Schneider S2 cells, stably transfected, protein secreted into the medium
T1 sequence (Q24451 76-1108): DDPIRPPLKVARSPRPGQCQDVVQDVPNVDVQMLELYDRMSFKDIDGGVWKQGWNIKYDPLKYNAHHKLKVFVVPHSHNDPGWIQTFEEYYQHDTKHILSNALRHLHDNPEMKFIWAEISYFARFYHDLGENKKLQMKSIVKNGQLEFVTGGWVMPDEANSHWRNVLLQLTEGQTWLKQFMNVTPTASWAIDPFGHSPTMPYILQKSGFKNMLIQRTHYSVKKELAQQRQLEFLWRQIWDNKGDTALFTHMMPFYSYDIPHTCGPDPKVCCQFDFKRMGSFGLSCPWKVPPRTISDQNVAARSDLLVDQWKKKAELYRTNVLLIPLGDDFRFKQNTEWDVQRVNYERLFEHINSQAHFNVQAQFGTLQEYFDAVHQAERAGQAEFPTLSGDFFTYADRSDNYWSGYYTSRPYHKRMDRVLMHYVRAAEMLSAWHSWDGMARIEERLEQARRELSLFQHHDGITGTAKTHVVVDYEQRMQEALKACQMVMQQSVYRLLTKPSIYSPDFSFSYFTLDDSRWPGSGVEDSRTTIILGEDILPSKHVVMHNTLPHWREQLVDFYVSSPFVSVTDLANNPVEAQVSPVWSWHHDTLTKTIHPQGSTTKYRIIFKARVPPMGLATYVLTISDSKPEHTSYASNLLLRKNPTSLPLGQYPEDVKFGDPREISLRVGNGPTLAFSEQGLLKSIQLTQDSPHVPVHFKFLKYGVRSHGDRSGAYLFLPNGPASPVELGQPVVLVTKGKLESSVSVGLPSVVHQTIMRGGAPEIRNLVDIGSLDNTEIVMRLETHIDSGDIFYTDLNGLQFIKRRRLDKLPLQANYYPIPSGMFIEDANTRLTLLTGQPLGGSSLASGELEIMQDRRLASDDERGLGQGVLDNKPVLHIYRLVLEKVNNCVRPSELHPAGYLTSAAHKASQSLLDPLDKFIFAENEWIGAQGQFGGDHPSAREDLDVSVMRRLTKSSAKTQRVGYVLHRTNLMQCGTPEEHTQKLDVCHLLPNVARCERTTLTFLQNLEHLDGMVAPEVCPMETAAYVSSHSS

mouse GMII = target: T2, mouse GMII (Mus musculus, UniProt P27046); details: Rabouille et al., 1999; cited from earlier work
T2 sequence (P27046 1-1150): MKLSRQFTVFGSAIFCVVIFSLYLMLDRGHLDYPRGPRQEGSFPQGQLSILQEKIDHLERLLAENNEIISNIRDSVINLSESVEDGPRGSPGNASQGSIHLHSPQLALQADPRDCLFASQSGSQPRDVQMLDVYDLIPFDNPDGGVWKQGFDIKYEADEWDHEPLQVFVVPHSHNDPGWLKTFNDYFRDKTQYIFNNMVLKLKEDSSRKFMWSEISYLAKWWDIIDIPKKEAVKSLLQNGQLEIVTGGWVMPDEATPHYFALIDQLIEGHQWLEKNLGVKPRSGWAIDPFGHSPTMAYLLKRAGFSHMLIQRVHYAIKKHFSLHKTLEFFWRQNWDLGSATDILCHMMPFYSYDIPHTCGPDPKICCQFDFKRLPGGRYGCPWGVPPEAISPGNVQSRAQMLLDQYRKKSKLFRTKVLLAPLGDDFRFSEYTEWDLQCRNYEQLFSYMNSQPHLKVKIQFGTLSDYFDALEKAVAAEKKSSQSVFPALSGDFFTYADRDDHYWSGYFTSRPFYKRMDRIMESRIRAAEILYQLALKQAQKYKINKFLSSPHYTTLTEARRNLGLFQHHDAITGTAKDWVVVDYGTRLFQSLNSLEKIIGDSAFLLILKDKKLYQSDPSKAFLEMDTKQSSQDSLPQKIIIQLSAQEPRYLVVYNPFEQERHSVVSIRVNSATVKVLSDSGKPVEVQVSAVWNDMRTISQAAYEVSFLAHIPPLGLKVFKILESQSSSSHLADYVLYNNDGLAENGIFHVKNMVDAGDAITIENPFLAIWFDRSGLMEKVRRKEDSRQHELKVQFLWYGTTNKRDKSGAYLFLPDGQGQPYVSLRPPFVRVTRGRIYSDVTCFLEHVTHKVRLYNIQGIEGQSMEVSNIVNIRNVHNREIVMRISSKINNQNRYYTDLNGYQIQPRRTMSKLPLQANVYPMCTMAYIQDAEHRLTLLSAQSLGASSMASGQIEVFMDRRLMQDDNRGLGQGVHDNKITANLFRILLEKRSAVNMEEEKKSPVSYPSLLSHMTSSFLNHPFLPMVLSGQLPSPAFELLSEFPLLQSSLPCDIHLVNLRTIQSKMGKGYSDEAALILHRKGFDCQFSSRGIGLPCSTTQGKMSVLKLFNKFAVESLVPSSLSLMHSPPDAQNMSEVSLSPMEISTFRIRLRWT

dGMII [2] = target: T3, dGMII (Drosophila melanogaster, UniProt Q24451); assay: binding affinity of inhibitors for dGMII; details: relative to DMNJ; data not shown
T3 sequence (Q24451 1-1108): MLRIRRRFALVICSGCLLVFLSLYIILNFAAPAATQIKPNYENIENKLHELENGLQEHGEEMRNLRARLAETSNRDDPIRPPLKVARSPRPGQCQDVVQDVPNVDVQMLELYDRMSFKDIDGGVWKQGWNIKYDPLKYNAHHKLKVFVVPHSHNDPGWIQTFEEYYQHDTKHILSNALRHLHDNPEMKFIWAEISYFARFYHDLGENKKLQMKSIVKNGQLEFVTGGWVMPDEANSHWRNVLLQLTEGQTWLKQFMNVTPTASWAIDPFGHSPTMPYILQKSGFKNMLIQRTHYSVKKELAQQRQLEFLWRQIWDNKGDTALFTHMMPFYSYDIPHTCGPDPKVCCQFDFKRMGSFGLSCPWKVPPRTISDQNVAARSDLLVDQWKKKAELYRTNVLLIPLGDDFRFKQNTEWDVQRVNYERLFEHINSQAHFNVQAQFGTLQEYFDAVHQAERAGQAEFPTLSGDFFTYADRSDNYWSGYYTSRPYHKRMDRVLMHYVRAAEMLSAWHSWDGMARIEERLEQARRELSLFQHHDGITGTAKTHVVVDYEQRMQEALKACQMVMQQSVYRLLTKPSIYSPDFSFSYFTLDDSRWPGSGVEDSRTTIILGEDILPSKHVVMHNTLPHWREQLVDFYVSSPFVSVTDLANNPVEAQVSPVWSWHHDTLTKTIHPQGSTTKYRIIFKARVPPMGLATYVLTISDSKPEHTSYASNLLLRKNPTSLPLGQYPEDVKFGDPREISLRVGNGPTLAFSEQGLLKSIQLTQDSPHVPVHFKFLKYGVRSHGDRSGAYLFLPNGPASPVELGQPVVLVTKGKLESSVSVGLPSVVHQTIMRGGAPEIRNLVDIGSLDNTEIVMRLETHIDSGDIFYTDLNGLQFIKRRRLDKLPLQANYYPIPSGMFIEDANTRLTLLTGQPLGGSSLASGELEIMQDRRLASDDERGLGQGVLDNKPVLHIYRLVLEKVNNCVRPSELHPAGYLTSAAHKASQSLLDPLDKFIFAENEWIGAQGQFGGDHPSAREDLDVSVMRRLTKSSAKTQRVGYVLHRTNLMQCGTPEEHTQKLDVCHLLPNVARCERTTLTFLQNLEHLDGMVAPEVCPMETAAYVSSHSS

[3] = test system: Drosophila Schneider (S2) cells; assay: viability of induced S2 cells by Trypan blue exclusion; format: cell-based; details: 10-20 μM cadmium, until the end of the induction period
Method: Initial experiments were carried out in S2 medium containing 10% bovine serum. Metal concentrations used to induce and time of induction were optimized for dGMII production. […] Cadmium has been reported to be detrimental to the growth of cells. However, at the concentrations used here, the cells continued to grow and maintain greater than 90% viability (as assessed by Trypan blue exclusion) until the end of the induction period. Cells were maintained in the continous presence of cadmium for up to three passages.

Which “inhibition of dGMII activity” value (dGMII [1]; Rabouille et al., 1999) does the source give for `NC(CO)(CO)CO` [Tris, tris(hydroxymethyl)-aminomethane, reference compound] here?
Its value is “inhibit”.

What does the source list for `[Cu+2]` [copper]?
inactivation of Drosophila GMII (dGMII [1]; Rabouille et al., 1999): effectively inactivate; IC50 (dGMII [1]; read-out: inhibition of dGMII by copper, IC50): 25 µM; inactivation of mouse GMII (mouse GMII): effectively inactivate

With `O[C@H]1[C@H]2[C@H](O)CCCN2C[C@H]1O` [swainsonine] as the compound, how does the “binding affinity for the enzyme, compared to the substrate-mimic DMNJ” value (dGMII [2]) read?
Its value is 10,000 times higher.

With `[Cd]` [Cadmium] as the compound, how does the “cell viability (Trypan blue exclusion)” value [3] read?
The value was “greater than 90%”.
